# In patent US10183024B2, “Crystalline forms of ibrutinib” (Apotex Inc., priority 2016, dated 2019):
# Experiments:
# [1] = PXRD study of crystal form stability on storage in stability chambers; assay type: physicochemical
# Procedure: Ibrutinib Form APO-I can be characterized by a PXRD diffractogram comprising, among other peaks, characteristic peaks, expressed in degrees 2θ (±0.2°), at 5.1°, 7.6° and 12.5°. Preferably, the PXRD diffractogram further comprises at least three peaks, expressed in degrees 2θ (±0.2°), selected from the group consisting of: 10.1°, 11.1°, 14.2°, 15.4°, 16.3°, 17.3° and 18.7°. More preferably, the PXRD diffractogram further comprises peaks, expressed in degrees 2θ (±0.2°), at 10.1°, 11.1°, 14.2°, 15.4°, 16.3°, 17.3° and 18.7°. PXRD studies of capped and uncapped samples of Ibrutinib Form APO-I have shown that this crystal form is stable following storage in stability chambers maintained at 27° C./60% RH for at least 31 days and 40° C./75% RH for at least 21 days.
# Ibrutinib Form APO-II can be characterized by a PXRD diffractogram comprising, among other peaks, characteristic peaks, expressed in degrees 2θ (±0.2°), at 6.4°, 10.1° and 12.8°. Preferably, the PXRD diffractogram further comprises at least three peaks, expressed in degrees 2θ (±0.2°), selected from the group consisting of: 13.8°, 17.6°, 18.4°, 19.4°, 20.4°, 21.0°, 21.7°, 23.2°, 24.1° and 24.9°. More preferably, the PXRD diffractogram further comprises peaks, expressed in degrees 2θ (±0.2°), at 13.8°, 17.6°, 18.4°, 19.4°, 20.4°, 21.0°, 21.7°, 23.2°, 24.1° and 24.9°. PXRD studies of capped and uncapped samples of Ibrutinib Form APO-II have shown that this crystal form is stable following storage in stability chambers maintained at 27° C./60% RH and 40° C./75% RH for at least 25 days.
# Ibrutinib Form APO-IV can be characterized by a PXRD diffractogram comprising, among other peaks, characteristic peaks, expressed in degrees 2θ (±0.2°), at 6.4°, 10.2° and 12.9°. Preferably, the PXRD diffractogram further comprises at least three peaks, expressed in degrees 2θ (±0.2°), selected from the group consisting of: 13.9°, 17.7°, 18.4°, 19.4°, 20.5°, 21.3°, 21.8°, 23.2°, 24.2° and 24.9°. More preferably, the PXRD diffractogram further comprises peaks, expressed in degrees 2θ (±0.2°), at 13.9°, 17.7°, 18.4°, 19.4°, 20.5°, 21.3°, 21.8°, 23.2°, 24.2° and 24.9°. PXRD studies of uncapped samples of Ibrutinib Form APO-IV have shown that this crystal form is stable following storage in a stability chambers maintained at 40° C./75% RH for at least 11 months.
# Data were acquired on a PANanalytical X-Pert Pro MPD diffractometer with fixed divergence slits and an X'Celerator RTMS detector. The diffractometer was configured in Bragg-Brentano geometry; data was collected over a 2-theta range of 3° to 40° using CuKα radiation at a power of 40 mA and 45 kV. CuKβ radiation was removed using a divergent beam nickel filter. A step size of 0.017° was used. Samples were rotated to reduce preferred orientation effects. Samples were lightly ground prior to analysis.
# [2] = cited from earlier work
# [3] = 27° C./60% RH, capped and uncapped samples
# [4] = 40° C./75% RH, capped and uncapped samples
"crystal form stable following storage (PXRD) [1, 3]","crystal form stable following storage (PXRD) [1, 4]",Compound,further results
at least 31 days,at least 21 days,C=CC(=O)N1CCCC(n2nc(-c3ccc(Oc4ccccc4)cc3)c3c(N)ncnc32)C1 (stereo not shown) [Form APO-I],–
–,–,C=CC(=O)N1CCCC(n2nc(-c3ccc(Oc4ccccc4)cc3)c3c(N)ncnc32)C1 (stereo not shown) [Form B],aqueous solubility ([2]; reported for other anhydrous forms): low aqueous solubility
–,–,C=CC(=O)N1CCCC(n2nc(-c3ccc(Oc4ccccc4)cc3)c3c(N)ncnc32)C1 (stereo not shown) [Form A],"solubility ([2]; drug substance in IMBRUVICA, per AusPAR): pH dependent solubility"
at least 25 days,at least 25 days,C=CC(=O)N1CCCC(n2nc(-c3ccc(Oc4ccccc4)cc3)c3c(N)ncnc32)C1 (stereo not shown) [Form APO-II],–
–,–,C=CC(=O)N1CCCC(n2nc(-c3ccc(Oc4ccccc4)cc3)c3c(N)ncnc32)C1 (stereo not shown) [Form APO-IV],"crystal form stable following storage (PXRD) ([1]; 40° C./75% RH, uncapped samples): at least 11 months"
